Source: patent publication US20230340011A1 (Asteroid Therapeutics, priority 2022, published 2023)

Biological target: SREBP-2 (Homo sapiens (Human), UniProt Q12772)
Assay: In vitro assay SREBP-2: PathHunter U2OS SREBP-2 Nuclear Translocation Cell Line, U18666A-stimulated
Assay type: cell-based
Conditions: PathHunter U2OS SREBP-2 nuclear translocation cells, U18666A 10 μM, overnight (16 hours)

Row | Compound | IC50 [nM]
1 | CON(C)C(=O)CC[C@@H](C)[C@H]1CC[C@H]2[C@@H]3CC=C4C[C@@H](O)CC[C@]4(C)[C@H]3CC[C@]12C [Example 1, (R)-4-((3S,8S,9S,10R,13R,14S,17R)-3-hydroxy-10,13-dimethyl-2,3,4,7,8,9,10,11,12,13,14,15,16,17-tetradecahydro-1H-cyclopenta[a]phenanthren-17-yl)-N-methoxy-N-methylpentanamide] | < 250
2 | C[C@H](CCC(=O)N1CCNCC1)[C@H]1CC[C@H]2[C@@H]3CC=C4C[C@@H](O)CC[C@]4(C)[C@H]3CC[C@]12C [Example 2, (R)-4-((3S,8S,9S,10R,13R,14S,17R)-3-hydroxy-10,13-dimethyl-2,3,4,7,8,9,10,11,12,13,14,15,16,17-tetradecahydro-1H-cyclopenta[a]phenanthren-17-yl)-1-(piperazin-1-yl) pentan-1-one] | 250 to 1000
3 | CC(=O)N1CCN(C(=O)CC[C@@H](C)[C@H]2CC[C@H]3[C@@H]4CC=C5C[C@@H](O)CC[C@]5(C)[C@H]4CC[C@]23C)CC1 [Example 3, (R)-1-(4-acetylpiperazin-1-yl)-4-((3S,8S,9S,10R,13R,14S,17R)-3-hydroxy-10,13-dimethyl-2,3,4,7,8,9,10,11,12,13,14,15,16,17-tetradecahydro-1H-cyclopenta[a]phenanthren-17-yl)pentan-1-one] | < 250
4 | C[C@H](CCC(=O)N1CCN(C(N)=O)CC1)[C@H]1CC[C@H]2[C@@H]3CC=C4C[C@@H](O)CC[C@]4(C)[C@H]3CC[C@]12C [Example 4, 4—((R)-4-((3S,8S,9S,10R,13R,14S,17R)-3-hydroxy-10,13-dimethyl-2,3,4,7,8,9,10,11,12,13,14,15,16,17-tetradecahydro-1H-cyclopenta[a]phenanthren-17-yl)pentanoyl)piperazine-1-carboxamide] | < 250
5 | C[C@H](CCC(=O)N1CCOCC1)[C@H]1CC[C@H]2[C@@H]3CC=C4C[C@@H](O)CC[C@]4(C)[C@H]3CC[C@]12C [Example 7, (R)-4-((3S,8S,9S,10R,13R,14S,17R)-3-hydroxy-10,13-dimethyl-2,3,4,7,8,9,10,11,12,13,14,15,16,17-tetradecahydro-1H-cyclopenta[a]phenanthren-17-yl)-1-morpholinopentan-1-one] | < 250
6 | C[C@H](CC[C@](O)(C1CCC1)C(F)(F)F)[C@H]1CC[C@H]2[C@@H]3CC=C4C[C@@H](O)CC[C@]4(C)[C@H]3CC[C@]12C [Example 25, (3S,8S,9S,10R,13R,14S,17R)-17-((2R,5S)-5-cyclobutyl-6,6,6-trifluoro-5-hydroxyhexan-2-yl)-10,13-dimethyl-2,3,4,7,8,9,10,11,12,13,14,15,16,17-tetradecahydro-1H-cyclopenta[a]phenanthren-3-ol] | 250 to 1000
7 | C[C@H](CCC(=O)N(C)OCCCC(F)(F)F)[C@H]1CC[C@H]2[C@@H]3CC=C4C[C@@H](O)CC[C@]4(C)[C@H]3CC[C@]12C [Example 32, (R)-4-((3S,8S,9S,10R,13R,14S,17R)-3-hydroxy-10,13-dimethyl-2,3,4,7,8,9,10,11,12,13,14,15,16,17-tetradecahydro-1H-cyclopenta[a]phenanthren-17-yl)-N-methyl-N-(4,4,4-trifluorobutoxy)pentanamide] | 250 to 1000
8 | C[C@H](OC(=O)C(=O)N(C)C)[C@H]1CC[C@H]2[C@@H]3CC=C4C[C@@H](O)CC[C@]4(C)[C@H]3CC[C@]12C [Example 35, (S)-1-((3S,8S,9S,10R,13S,14S,17S)-3-hydroxy-10,13-dimethyl-2,3,4,7,8,9,10,11,12,13,14,15,16,17-tetradecahydro-1H-cyclopenta[a]phenanthren-17-yl)ethyl 2-(dimethylamino)-2-oxoacetate] | 250 to 1000
